In test [1] the test system is T-cell. As to the kind of experiment: IL-2 secretion from T-cells stimulated with anti-CD3 antibody alone (Biological Example 2). The class given is cell-based. Particulars: 1 μM compound, primary human total T-cells, read-out: IL-2 secretion, Anti-CD3 stimulation, fold change over baseline.
Test [2] addresses T1, Cbl-b (Homo sapiens, UniProt Q13191). Description: Cbl-b activity assay (Cbl-b inhibition assay), TR-FRET of Cbl-b interaction with UbcH5B-Ub. The following applies: assay buffer with 100 mM NaCl, 60 nM Src kinase; read-out: Cbl-b activity IC50. The class given is biochemical. In a few lines:
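Compound-treated Cbl-b was incubated 1.5 h with Src kinase (60 nM final; 30 nM for asterisked values, which also used 50 mM instead of 100 mM NaCl), 1 mM ATP and 5 mM MgCl2. Binding to fluorescent Ub-loaded UbcH5B (C85K mutant) was then read by TR-FRET after 1 h more.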
For orientation: In TR-FRET formats the signal depends on donor and acceptor labels being close together.

Test [3] has as its system T-cell. As to the kind of experiment: IL-2 secretion from T-cells co-stimulated with anti-CD3 and anti-CD28 antibody (Biological Example 2). The class given is cell-based, human. The following applies: Homo sapiens, T-cell, primary human total T-cells, baseline = anti-CD3/anti-CD28 stimulated cells without inhibitor, read-out: IL-2 secretion, Anti-CD3/Anti-CD28 stimulation, fold change over baseline; for fold induction at 0.3 µM: 0.3 μM compound; for fold induction at 1 µM: 1 μM compound. A digest of the protocol: (§1)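 Values are fold-change over baseline: readings (IL-2 release, CD25 staining) from inhibitor-treated T-cells divided against untreated cells […]. No detailed procedure stated.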

The subject of test [4] is T-cell. As to the kind of experiment: CD25 cell surface staining on T-cells stimulated with anti-CD3 antibody alone (Biological Example 2). Particulars: 1 μM compound, primary human total T-cells, baseline = anti-CD3/anti-CD28 stimulated cells without inhibitor, read-out: CD25 staining, Anti-CD3 stimulation, fold change over baseline. Type of test: cell-based.
Test [5] has as its target T1, Cbl-b. As to the kind of experiment: Cbl-b inhibition assay (Cbl-b activity assay, FRET, Biological Example 1; 100 mM NaCl, 60 nM Src kinase). The following applies: upper bound stated in text lists; read-out: IC50 values in the Cbl-b inhibition assay of Biological Example 1. The class given is biochemical. In a few lines: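 Here, the E2 UbcH5B, irreversibly linked to Bodipy-fluorescein ubiquitin, binds Cbl-b once Src kinase phosphorylates it; Cbl-b carries an N-terminal biotinylated Avi-tag captured by streptavidin-terbium. An absent FRET signal indicates inhibition.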

Test [6] concerns T-cell. As to the kind of experiment: CD25 cell surface staining on T-cells co-stimulated with anti-CD3 and anti-CD28 antibody (Biological Example 2). Type of test: cell-based, human. The following applies: Homo sapiens, T-cell, primary human total T-cells, baseline = anti-CD3/anti-CD28 stimulated cells without inhibitor, read-out: CD25 staining, Anti-CD3/Anti-CD28 stimulation, fold change over baseline; for fold induction at 0.3 µM: 0.3 μM compound; for fold induction at 1 µM: 1 μM compound. In a few lines:
as §1

SMILES strings stand for the structures. Where only a bound is given, the exact number is not on record here.

Consider 10 compounds from patent US20220324835A1 (Nurix Therapeutics, Inc., priority 2018, published 2022).

T1 sequence (Q13191 36-427): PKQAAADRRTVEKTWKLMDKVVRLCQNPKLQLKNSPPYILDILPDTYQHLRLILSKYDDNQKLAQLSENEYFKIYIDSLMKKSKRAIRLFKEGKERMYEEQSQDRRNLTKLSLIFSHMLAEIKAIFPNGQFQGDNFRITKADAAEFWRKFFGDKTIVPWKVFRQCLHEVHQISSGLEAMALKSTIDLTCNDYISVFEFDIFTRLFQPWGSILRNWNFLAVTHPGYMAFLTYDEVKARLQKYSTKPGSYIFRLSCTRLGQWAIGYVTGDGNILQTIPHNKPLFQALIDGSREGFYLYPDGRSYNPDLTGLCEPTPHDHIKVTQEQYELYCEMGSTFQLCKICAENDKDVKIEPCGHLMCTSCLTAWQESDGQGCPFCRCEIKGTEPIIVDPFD

What is called IC50 is the point on the concentration scale where inhibition reaches its midpoint. Turning to `CN1CCC(=O)C(Cc2cc3c(c(C(F)(F)F)c2)CN(c2cccc(C4(Cc5nncn5C)COC4)c2)C3=O)C1` (stereo not drawn) [Compound 531, 6-((l-methyl-4-oxopiperidin-3-yl)methyl)-2-(3-(3-((4-methyl-4H-1,2,4-triazol-3-yl)methyl)oxetan-3-yl)phenyl)-4-(trifluoromethyl)isoindolin-1-one], the fold induction at 1 µM was above 0.201 with T-cell [1], above 7.5 in the test with T-cell [3], above 1 in the test with T-cell [4] and 1.01 to 1.3 in the test with T-cell [6]. Further, the concentration for half-maximal inhibition (IC50) was below 100 nM on Cbl-b [2] and at most 100 nM at Cbl-b [5]. Also, the fold induction at 0.3 µM in the test with T-cell [3] was above 7.5; with T-cell [6] it was 1.01 to 1.3.

Regarding `Cc1conc1CC1(c2cccc(N3Cc4c(cc(CN5CCC6(CC6)C5)cc4C(F)(F)F)C3=O)c2)COC1` [Compound 535, 6-{5-azaspiro[2.4]heptan-5-ylmethyl}-2-(3-{3-[(4-methyl-1,2-oxazol-3-yl)methyl]oxetan-3-yl}phenyl)-4-(trifluoromethyl)-3H-isoindol-1-one], the fold induction at 1 µM in the test with T-cell [1] was above 0.201; with T-cell [3], above 7.5; in the test with T-cell [4], above 1; in the test on T-cell [6] it was 1.31 to 1.5. The values for the IC50 at Cbl-b [2] and on Cbl-b [5] were below 100 nM and at most 100 nM, respectively. For the same compound, the fold induction at 0.3 µM in the test on T-cell [3] is above 7.5; in the test with T-cell [6], 1.31 to 1.5.

Consider `Cn1cnnc1CC1(c2cccc(N3Cc4c(cc(CN5CC(F)C5(C)C)cc4C(F)(F)F)C3=O)c2)COC1` (centres unmarked) [Compound 536, 6-((3-fluoro-2,2-dimethylazetidin-1-yl)methyl)-2-(3-(3-((4-methyl-4H-1,2,4-triazol-3-yl)methyl)oxetan-3-yl)phenyl)-4-(trifluoromethyl)isoindolin-1-one], for which the fold induction at 1 µM was 0.101 to 0.15 with T-cell [1], 5 to 7.5 in the test with T-cell [3], above 1 in the test on T-cell [4] and 1.31 to 1.5 with T-cell [6]. Besides, the figures for the IC50 on Cbl-b [2] and on Cbl-b [5] were below 100 nM and at most 100 nM, respectively. Besides, the fold induction at 0.3 µM in the test on T-cell [3] is 2.51 to 5; in the test with T-cell [6] it was 1.31 to 1.5.

For `CC(c1cc(C(=O)Nc2cccc(C3(Cc4nncn4C)COC3)c2)nc(C2CC2)n1)N1CC(F)C1` (centres unmarked) [Compound 538, 2-cyclopropyl-6-(1-(3-fluoroazetidin-1-yl)ethyl)-N-(3-(3-((4-methyl-4H-1,2,4-triazol-3-yl)methyl)oxetan-3-yl)phenyl)pyrimidine-4-carboxamide], the fold induction at 1 µM was in the range of 0.101 to 0.15 in the test on T-cell [1], 2.51 to 5 in the test on T-cell [3], 0.801 to 1 with T-cell [4] and 1.31 to 1.5 in the test with T-cell [6]. For the same compound, the half-inhibitory concentration (IC50) on Cbl-b [2] was below 100 nM; on Cbl-b [5], at most 100 nM. Also, the fold induction at 0.3 µM in the test on T-cell [3] was 1.01 to 2.5; with T-cell [6], 1.01 to 1.3.

Take `CC(O)c1cc2c(c(C(F)(F)F)c1)CN(c1cccc(C3(Cc4nncn4C)COC3)c1)C2=O` (stereo not drawn) [Compound 540, 6-(l-hydroxyethyl)-2-(3-(3-((4-methyl-4H-1,2,4-triazol-3-yl)methyl)oxetan-3-yl)phenyl)-4-(trifluoromethyl)isoindolin-1-one]: the fold induction at 1 µM is 0.151 to 0.2 with T-cell [1], 2.51 to 5 with T-cell [3], above 1 in the test on T-cell [4] and 1.01 to 1.3 in the test with T-cell [6]. The IC50 at Cbl-b [2] was below 100 nM; at Cbl-b [5], at most 100 nM. Further, the fold induction at 0.3 µM in the test on T-cell [3] is 1.01 to 2.5; in the test on T-cell [6] it was 1.01 to 1.3.

Turning to `C[C@H](c1cc2c(c(C(F)(F)F)c1)CN(c1cccc(C3(Cc4nncn4C)COC3)c1)C2=O)N1C[C@H]2C[C@H]2C1` [Compound 541b, 6-((1R)-1-(3-azabicyclo[3.1.0]hexan-3-yl)ethyl)-2-(3-(3-((4-methyl-4H-1,2,4-triazol-3-yl)methyl)oxetan-3-yl)phenyl)-4-(trifluoromethyl)isoindolin-1-one], the fold induction at 1 µM is above 0.201 in the test with T-cell [1], above 7.5 with T-cell [3], above 1 in the test with T-cell [4] and 1.31 to 1.5 in the test with T-cell [6]. Also, the figures for the concentration for half-maximal inhibition (IC50) on Cbl-b [2] and on Cbl-b [5] were below 100 nM and at most 100 nM, respectively. Moreover, the fold induction at 0.3 µM was above 7.5 with T-cell [3] and 1.31 to 1.5 in the test on T-cell [6].

In the case of `C[C@@H](c1cc2c(c(C(F)(F)F)c1)CN(c1cccc(C3(Cc4nncn4C)COC3)c1)C2=O)N1CC(C)(F)C1` [Compound 543a, (S)-6-(1-(3-fluoro-3-methylazetidin-1-yl)ethyl)-2-(3-(3-((4-methyl-4H-1,2,4-triazol-3-yl)methyl)oxetan-3-yl)phenyl)-4-(trifluoromethyl)isoindolin-1-one], the fold induction at 1 µM with T-cell [1] is above 0.201; in the test with T-cell [3], above 7.5; in the test with T-cell [4] it was above 1; in the test with T-cell [6], 1.51 to 1.75. Moreover, the values for the 50% inhibitory concentration (IC50) on Cbl-b [2] and at Cbl-b [5] were below 100 nM and at most 100 nM, respectively. Besides, the figures for the fold induction at 0.3 µM with T-cell [3] and in the test with T-cell [6] were 2.51 to 5 and 1.31 to 1.5, respectively.

For the compound `C[C@H](c1cc2c(c(C(F)(F)F)c1)CN(c1cccc(C3(Cc4nncn4C)COC3)c1)C2=O)N1CC(C)(F)C1` [Compound 543b, (R)-6-(1-(3-fluoro-3-methylazetidin-1-yl)ethyl)-2-(3-(3-((4-methyl-4H-1,2,4-triazol-3-yl)methyl)oxetan-3-yl)phenyl)-4-(trifluoromethyl)isoindolin-1-one], the fold induction at 1 µM in the test with T-cell [1] was above 0.201; in the test with T-cell [3], above 7.5; with T-cell [4], above 1; in the test on T-cell [6] it was 1.51 to 1.75. For the same compound, the IC50 on Cbl-b [2] is below 100 nM; at Cbl-b [5], at most 100 nM. For the same compound, the fold induction at 0.3 µM in the test with T-cell [3] lay within 5 to 7.5; with T-cell [6] it was 1.51 to 1.75.

Consider `Cn1cnnc1CC1(c2cccc(N3Cc4c(cc(C(F)(F)C(=O)O)cc4C(F)(F)F)C3=O)c2)COC1` [Example 544, 2,2-difluoro-2-(2-(3-(3-((4-methyl-4H-1,2,4-triazol-3-yl)methyl)oxetan-3-yl)phenyl)-3-oxo-7-(trifluoromethyl)isoindolin-5-yl)acetic acid], for which the fold induction at 1 µM in the test on T-cell [1] was below 0.05; with T-cell [3], 1.01 to 2.5; in the test with T-cell [4], 0.601 to 0.8; in the test on T-cell [6], 1.01 to 1.3. The values for the 50% inhibitory concentration (IC50) on Cbl-b [2] and on Cbl-b [5] were 301 to 1000 nM and at most 1000 nM, respectively. Besides, the fold induction at 0.3 µM fell in the range of 1.01 to 2.5 with T-cell [3] and 1.01 to 1.3 in the test with T-cell [6].

Consider `CC[C@@H](c1cc2c(c(C(F)(F)F)c1)CN(c1cccc(C3(Cc4nncn4C)COC3)c1)C2=O)N1CC[C@H](F)C1` [Example 545, 6-((S)-1-((S)-3-fluoropyrrolidin-1-yl)propyl)-2-(3-(3-((4-methyl-4H-1,2,4-triazol-3-yl)methyl)oxetan-3-yl)phenyl)-4-(trifluoromethyl)isoindolin-1-one], for which the fold induction at 1 µM is above 0.201 with T-cell [1], above 7.5 in the test on T-cell [3], above 1 with T-cell [4] and 1.51 to 1.75 in the test on T-cell [6]. For the same compound, the IC50 was below 100 nM on Cbl-b [2] and at most 100 nM at Cbl-b [5]. The results for the fold induction at 0.3 µM with T-cell [3] and with T-cell [6] were above 7.5 and 1.51 to 1.75, respectively.
